Our source for the Ki values is patent US20100160279A1, “Azetidine Derivatives as Muscarinic Receptor Antagonists” (Pfizer Inc, priority 2006, published 2010).

Some results are limits rather than exact numbers.

One may read the Ki as the dissociation constant of the complex between target and ligand, obtained from inhibition or displacement. The low end stands for higher affinity, the high end for lower affinity.

T1 sequence (P20309 whole entry): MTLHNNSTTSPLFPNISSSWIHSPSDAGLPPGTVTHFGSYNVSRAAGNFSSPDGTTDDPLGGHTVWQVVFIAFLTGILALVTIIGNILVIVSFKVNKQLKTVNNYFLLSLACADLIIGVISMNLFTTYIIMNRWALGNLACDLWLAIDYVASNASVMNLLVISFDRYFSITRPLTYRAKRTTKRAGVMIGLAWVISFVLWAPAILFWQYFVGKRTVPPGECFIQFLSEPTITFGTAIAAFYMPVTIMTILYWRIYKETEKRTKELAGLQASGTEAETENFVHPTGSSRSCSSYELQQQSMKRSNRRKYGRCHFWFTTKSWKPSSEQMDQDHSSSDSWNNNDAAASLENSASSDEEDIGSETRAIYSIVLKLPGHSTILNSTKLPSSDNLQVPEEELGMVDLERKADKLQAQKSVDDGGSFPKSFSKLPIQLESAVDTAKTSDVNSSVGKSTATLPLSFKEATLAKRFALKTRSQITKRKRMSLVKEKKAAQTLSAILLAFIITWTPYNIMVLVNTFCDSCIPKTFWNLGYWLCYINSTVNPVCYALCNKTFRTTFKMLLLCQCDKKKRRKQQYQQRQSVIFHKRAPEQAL

This experiment has as its target T1, human muscarinic M3 receptor (Homo sapiens, UniProt P20309).
T1 construct: expressed in transfected cells
In words: hM3 β-Lac potency assay (cell based β-lactamase, inhibition of carbamyl choline induced signal). The conditions noted are these: CHO cells expressing human M3 receptor with NFAT-β-lactamase reporter; 80 nM carbamyl choline, 4 h; IC50 converted to Ki by Cheng-Prusoff. The method, then:
M3 potency was determined in CHO-K1 cells transfected with the NFAT-Betalactamase gene. CHO (Chinese Hamster Ovary) cells recombinantly expressing the human muscarinic M3 receptor were transfected with the NFAT_β-Lac_Zeo plasmid.
The cells were re-suspended at 2×10^5 cells/ml in growth medium (composition as described above). […] Muscarinic M3 receptor signalling was stimulated using 80 nM carbamyl choline (Aldrich N240-9) incubated with the cells for 4 h at 37° C./5% CO2 and monitored at the end of the incubation period using a Tecan SpectraFluor+ plate reader (λ-excitation 405 nm, emission 450 nm and 503 nm). […] Inhibition curves were plotted and IC50 values generated using a 4-parameter sigmoid fit and converted to Ki values using the Cheng-Prusoff correction and the KD value for carbamyl choline in the assay.
Turning to `CC(C)(CCC(C(N)=O)(c1ccccc1)c1ccccc1)N1CC(NCc2ccccc2)C1` [Example 2, 5-(3-Benzylamino-azetidin-1-yl)-5-methyl-2,2-diphenyl-hexanoic acid amide], affinity was put at a Ki of 0.556 nM.
`CC(C)(CCC(C(N)=O)(c1ccccc1)c1ccccc1)N1CC(NCc2cccc(O)c2Cl)C1` [Example 3, 5-[3-(2-Chloro-3-hydroxy-benzylamino)-azetidin-1-yl]-5-methyl-2,2-diphenyl-hexanoic acid amide] showed an inhibition constant Ki of 2.08 nM.
Take `CC(C)(CCC(C(N)=O)(c1ccccc1)c1ccccc1)N1CC(NCc2cc(Cl)ccc2O)C1` [Example 4, 5-[3-(5-Chloro-2-hydroxy-benzylamino)-azetidin-1-yl]-5-methyl-2,2-diphenyl-hexanoic acid amide]: the inhibition constant Ki worked out at 56.8 nM.
Molecule `CC(C)(CCC(C(N)=O)(c1ccccc1)c1ccccc1)N1CC(NCc2cc(F)ccc2O)C1` [Example 5, 5-[3-(5-Fluoro-2-hydroxy-benzylamino)-azetidin-1-yl]-5-methyl-2,2-diphenyl-hexanoic acid amide] showed an inhibition constant Ki of 2.53 nM.
Turning to `CC(C)(CCC(C(N)=O)(c1ccccc1)c1ccccc1)N1CC(NCc2cccc(O)c2)C1` [Example 6, 5-[3-(3-Hydroxy-benzylamino)-azetidin-1-yl]-5-methyl-2,2-diphenyl-hexanoic acid amide], affinity was put at a Ki of 0.727 nM.
Molecule `CC(C)(CCC(C#N)(c1ccccc1)c1ccccc1)N1CC(NCc2cc(F)ccc2O)C1` [Example 7, 5-[3-(5-Fluoro-2-hydroxy-benzylamino)-azetidin-1-yl]-5-methyl-2,2-diphenyl-hexanenitrile] returned an inhibitory constant (Ki) of 4.37 nM.
For `CC(C)(CCC(C#N)(c1ccccc1)c1ccccc1)N1CC(NCc2cc(Cl)ccc2O)C1` [Example 8, 5-[3-(5-Chloro-2-hydroxy-benzylamino)-azetidin-1-yl]-5-methyl-2,2-diphenyl-hexanenitrile] the value was more than 315 nM.
On to `CC(C)(CCC(C(N)=O)(c1ccccc1)c1ccccc1)N1CC(NCc2ccccc2O)C1` [Example 9, 5-[3-(2-Hydroxy-benzylamino)-azetidin-1-yl]-5-methyl-2,2-diphenyl-hexanoic acid amide], for which the Ki was found to be 0.594 nM.
For the molecule `CC(C)(CCC(C(N)=O)(c1ccccc1)c1ccccc1)N1CC(NCc2ccc(F)c(O)c2)C1` [Example 10, 5-[3-(4-Fluoro-3-hydroxy-benzylamino)-azetidin-1-yl]-5-methyl-2,2-diphenyl-hexanoic acid amide], the Ki was 0.396 nM.
As to `CC(C)(CCC(C(N)=O)(c1ccccc1)c1ccccc1)N1CC(NCc2ccc(Cl)c(O)c2)C1` [Example 12, 5-[3-(4-Chloro-3-hydroxy-benzylamino)-azetidin-1-yl]-5-methyl-22-diphenyl-hexanoic acid amide], the inhibition constant (Ki) is 0.905 nM.
`CC(C)(CCC(C(N)=O)(c1ccccc1)c1ccccc1)N1CC(Sc2cccc(O)c2)C1` [Example 15, 5-[3-(3-Hydroxy-phenylsulfanyl)-azetidin-1-yl]-5-methyl-2,2-diphenyl-hexanoic acid amide] had an inhibitory constant (Ki) of 0.368 nM.
